According to publication PMC10211317, “Identification of ARUK2002821 as an isoform-selective PI5P4Kα inhibitor” (RSC Medicinal Chemistry, 2023):
≈ marks a conversion by molar mass, not a printed value.

Legend:
PI3K gamma = PI3K gamma (Homo sapiens, UniProt P48736); assay: Lipid kinase panel (MRC PPU); format: biochemical; design: % activity remaining: dose or concentration left out as unconfirmed
Description: (§1) room temperature with shaking for 30 minutes. The kinase concentration in the eluates was measured by qPCR.
(§2) using ADP-GloTM assay at the MRC PPU International Centre for Kinase Profiling, University of Dundee.
(§3) Conducted by MRC PPU International Centre
(§4) Conducted by MRC PPU International Centre for […]

PI4K2a = PI4K2a (Homo sapiens, UniProt Q9BTU6); assay: Lipid kinase panel (MRC PPU); format: biochemical; design: % activity remaining: dose or concentration left out as unconfirmed
Description: as §1, §2, §3, §4

CHK beta = CHK beta (Homo sapiens, UniProt Q9Y259); assay: Lipid kinase panel (MRC PPU); format: biochemical; design: % activity remaining: dose or concentration left out as unconfirmed
Description: as §1, §2, §3, §4

DGK gamma = DGK gamma (Homo sapiens, UniProt P49619); assay: Lipid kinase panel (MRC PPU); format: biochemical; design: % activity remaining: dose or concentration left out as unconfirmed
Description: as §1, §2, §3, §4

PI3K beta = PI3K beta (Homo sapiens, UniProt P42338); assay: Lipid kinase panel (MRC PPU); format: biochemical; design: % activity remaining: dose or concentration left out as unconfirmed
Description: as §1, §2, §3, §4

PI3K alpha = PI3K alpha (Homo sapiens, UniProt P42336); assay: Lipid kinase panel (MRC PPU); format: biochemical; design: % activity remaining: dose or concentration left out as unconfirmed
Description: as §1, §2, §3, §4

CHK alpha = CHK alpha (Homo sapiens, UniProt P35790); assay: Lipid kinase panel (MRC PPU); format: biochemical; design: % activity remaining: dose or concentration left out as unconfirmed
Description: as §1, §2, §3, §4

DGK beta = DGK beta (Homo sapiens, UniProt Q9Y6T7); assay: Lipid kinase panel (MRC PPU); format: biochemical; design: % activity remaining: dose or concentration left out as unconfirmed
Description: as §1, §2, §3, §4

PI3Ka E545K + p85 = PI3Ka E545K + p85 (Homo sapiens, UniProt P42336, E545K); assay: Lipid kinase panel (MRC PPU); format: biochemical; design: % activity remaining: dose or concentration left out as unconfirmed
Description: as §1, §2, §3, §4

SPHK2 = SPHK2 (Homo sapiens, UniProt Q9NRA0); assay: Lipid kinase panel (MRC PPU); format: biochemical; design: % activity remaining: dose or concentration left out as unconfirmed
Description: as §1, §2, §3, §4

DGK zeta = DGK zeta (Homo sapiens, UniProt Q13574); assay: Lipid kinase panel (MRC PPU); format: biochemical; design: % activity remaining: dose or concentration left out as unconfirmed
Description: as §1, §2, §3, §4

PIK4CB = PIK4CB (Homo sapiens, UniProt Q9UBF8); assay: Lipid kinase panel (MRC PPU); format: biochemical; design: % activity remaining: dose or concentration left out as unconfirmed
Description: as §1, §2, §3, §4

SPHK1 = SPHK1 (Homo sapiens, UniProt Q9NYA1); assay: Lipid kinase panel (MRC PPU); format: biochemical; design: % activity remaining: dose or concentration left out as unconfirmed
Description: as §1, §2, §3, §4

[1] = Turbidimetric aqueous solubility; format: physicochemical; conditions: PBS buffer; pH 7.4 in aqueous buffer
Description: ADMET experimental methods […]
Turbidimetric aqueous solubility: analysis was performed by Cyprotex Discovery. Compound in DMSO at 10 mM was serially diluted to solutions of 0.1, 0.3, 1 and 3 mM in DMSO, then further diluted 1 in 100 in buffer (0.01 M PBS, pH 7.4, 1% DMSO final). 7 replicate wells of each dilution were equilibrated for 2 hours at 37 °C before absorbance is measured at 620 nm. The solubility is estimated from the concentration of test compound that produces an increase in absorbance above vehicle control (1% DMSO in buffer). […]

ULK2 = ULK2 (Homo sapiens, UniProt Q8IYT8); assay: Premier Screen kinase panel (MRC PPU); format: biochemical; conditions: ULK2 (Entrez ULK2), read-out: Residual activity (%)
Description: as §1, §2, §3, §4

PLK1 = PLK1 (Homo sapiens, UniProt P53350); assay: Premier Screen kinase panel (MRC PPU); format: biochemical; conditions: PLK1 (Entrez PLK1), read-out: Residual activity (%)
Description: as §1, §2, §3, §4

ZAP70 = ZAP70 (Homo sapiens, UniProt P43403); assay: Premier Screen kinase panel (MRC PPU); format: biochemical; conditions: ZAP70 (Entrez ZAP70), read-out: Residual activity (%)
Description: as §1, §2, §3, §4

PKA = PKA (Homo sapiens, UniProt P17612); assay: Premier Screen kinase panel (MRC PPU); format: biochemical; conditions: PKA (Entrez PRKAC), read-out: Residual activity (%)
Description: as §1, §2, §3, §4

BRK = BRK (Homo sapiens, UniProt Q13882); assay: Premier Screen kinase panel (MRC PPU); format: biochemical; conditions: BRK (Entrez PTK6), read-out: Residual activity (%)
Description: as §1, §2, §3, §4

MAPKAP-K2 = MAPKAP-K2 (Homo sapiens, UniProt P49137); assay: Premier Screen kinase panel (MRC PPU); format: biochemical; conditions: MAPKAP-K2 (Entrez MAPKAPK2), read-out: Residual activity (%)
Description: as §1, §2, §3, §4

PKBb = PKBb (Homo sapiens, UniProt P31751); assay: Premier Screen kinase panel (MRC PPU); format: biochemical; conditions: PKBb (Entrez AKT2), read-out: Residual activity (%)
Description: as §1, §2, §3, §4

PAK5 = PAK5 (Homo sapiens, UniProt Q9P286); assay: Premier Screen kinase panel (MRC PPU); format: biochemical; conditions: PAK5 (Entrez PAK5), read-out: Residual activity (%)
Description: as §1, §2, §3, §4

DAPK1 = DAPK1 (Homo sapiens, UniProt P53355); assay: Premier Screen kinase panel (MRC PPU); format: biochemical; conditions: DAPK1 (Entrez DAPK1), read-out: Residual activity (%)
Description: as §1, §2, §3, §4

TrkA = TrkA (Homo sapiens, UniProt P04629); assay: Premier Screen kinase panel (MRC PPU); format: biochemical; conditions: TrkA (Entrez NTRK1), read-out: Residual activity (%)
Description: as §1, §2, §3, §4

S6K1 = S6K1 (Homo sapiens, UniProt P23443); assay: Premier Screen kinase panel (MRC PPU); format: biochemical; conditions: S6K1 (Entrez RPS6KB1), read-out: Residual activity (%)
Description: as §1, §2, §3, §4

Lck = Lck (Homo sapiens, UniProt P06239); assay: Premier Screen kinase panel (MRC PPU); format: biochemical; conditions: Lck (Entrez LCK), read-out: Residual activity (%)
Description: as §1, §2, §3, §4

140 protein kinases = conditions: 1 μM
[2] = 1 μM, read-out: residual activity (%)

Chain of PI4K2a (Q9BTU6 whole entry, species assumed): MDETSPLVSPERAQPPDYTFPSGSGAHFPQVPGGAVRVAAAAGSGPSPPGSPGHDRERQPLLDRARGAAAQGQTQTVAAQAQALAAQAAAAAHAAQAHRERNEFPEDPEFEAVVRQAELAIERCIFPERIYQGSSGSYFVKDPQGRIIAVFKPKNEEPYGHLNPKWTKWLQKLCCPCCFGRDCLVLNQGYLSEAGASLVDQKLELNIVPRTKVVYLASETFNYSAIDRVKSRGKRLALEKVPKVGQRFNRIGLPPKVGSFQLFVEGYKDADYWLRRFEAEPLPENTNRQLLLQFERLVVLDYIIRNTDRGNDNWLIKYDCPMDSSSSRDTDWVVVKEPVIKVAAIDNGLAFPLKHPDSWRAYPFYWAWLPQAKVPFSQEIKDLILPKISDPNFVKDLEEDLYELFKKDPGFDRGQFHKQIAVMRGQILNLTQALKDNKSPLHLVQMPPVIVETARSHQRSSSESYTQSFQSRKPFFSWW
Chain of DGK gamma (P49619 whole entry, species assumed): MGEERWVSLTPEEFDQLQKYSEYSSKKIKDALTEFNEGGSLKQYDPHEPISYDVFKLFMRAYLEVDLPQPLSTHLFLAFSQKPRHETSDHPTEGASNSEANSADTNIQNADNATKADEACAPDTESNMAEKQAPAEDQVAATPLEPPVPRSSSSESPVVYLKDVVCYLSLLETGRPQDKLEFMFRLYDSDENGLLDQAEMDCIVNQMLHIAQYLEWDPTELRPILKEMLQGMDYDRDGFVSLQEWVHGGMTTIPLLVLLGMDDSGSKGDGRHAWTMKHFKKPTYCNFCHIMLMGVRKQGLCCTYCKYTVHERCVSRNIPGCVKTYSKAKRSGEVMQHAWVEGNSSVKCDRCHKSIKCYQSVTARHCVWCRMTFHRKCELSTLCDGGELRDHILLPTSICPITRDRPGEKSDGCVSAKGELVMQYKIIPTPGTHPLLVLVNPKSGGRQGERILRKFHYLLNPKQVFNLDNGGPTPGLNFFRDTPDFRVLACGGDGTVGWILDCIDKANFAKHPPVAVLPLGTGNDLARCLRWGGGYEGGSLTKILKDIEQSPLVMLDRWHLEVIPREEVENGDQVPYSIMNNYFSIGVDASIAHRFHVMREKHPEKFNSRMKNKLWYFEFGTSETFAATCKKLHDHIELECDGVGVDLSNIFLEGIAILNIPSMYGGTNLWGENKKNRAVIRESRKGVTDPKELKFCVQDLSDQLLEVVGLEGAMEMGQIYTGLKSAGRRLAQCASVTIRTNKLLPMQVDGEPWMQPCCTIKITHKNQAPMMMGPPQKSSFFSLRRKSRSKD
Chain of PI3K alpha (P42336 whole entry, species assumed): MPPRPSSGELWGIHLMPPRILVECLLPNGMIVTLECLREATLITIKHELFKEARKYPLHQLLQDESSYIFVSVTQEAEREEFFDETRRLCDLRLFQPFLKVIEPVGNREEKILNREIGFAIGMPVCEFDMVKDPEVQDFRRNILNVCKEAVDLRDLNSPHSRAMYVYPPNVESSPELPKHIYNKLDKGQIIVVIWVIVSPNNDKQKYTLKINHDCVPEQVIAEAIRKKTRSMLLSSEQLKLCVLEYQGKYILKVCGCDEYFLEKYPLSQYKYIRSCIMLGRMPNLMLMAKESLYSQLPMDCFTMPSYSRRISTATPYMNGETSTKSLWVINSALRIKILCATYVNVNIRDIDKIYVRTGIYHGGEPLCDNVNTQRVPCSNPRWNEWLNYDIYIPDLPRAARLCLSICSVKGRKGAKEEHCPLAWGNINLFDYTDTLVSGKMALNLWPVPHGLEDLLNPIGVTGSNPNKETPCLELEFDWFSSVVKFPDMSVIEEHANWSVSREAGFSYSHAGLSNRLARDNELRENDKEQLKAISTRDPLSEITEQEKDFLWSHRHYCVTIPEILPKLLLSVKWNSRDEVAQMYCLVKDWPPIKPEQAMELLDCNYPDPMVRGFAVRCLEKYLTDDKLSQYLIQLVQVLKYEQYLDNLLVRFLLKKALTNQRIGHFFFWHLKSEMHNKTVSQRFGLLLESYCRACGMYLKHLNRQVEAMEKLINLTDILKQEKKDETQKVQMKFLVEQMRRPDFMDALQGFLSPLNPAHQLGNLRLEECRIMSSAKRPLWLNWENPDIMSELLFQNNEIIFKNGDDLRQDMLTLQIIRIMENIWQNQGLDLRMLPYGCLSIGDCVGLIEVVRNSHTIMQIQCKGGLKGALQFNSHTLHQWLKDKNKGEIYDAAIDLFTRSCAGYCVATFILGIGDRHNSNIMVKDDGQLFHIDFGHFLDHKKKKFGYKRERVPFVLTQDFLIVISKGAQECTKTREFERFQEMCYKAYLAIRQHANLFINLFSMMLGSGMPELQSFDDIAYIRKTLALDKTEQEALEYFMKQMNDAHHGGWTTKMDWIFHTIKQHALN
Chain of PI3K alpha (P27986 whole entry partner, species assumed): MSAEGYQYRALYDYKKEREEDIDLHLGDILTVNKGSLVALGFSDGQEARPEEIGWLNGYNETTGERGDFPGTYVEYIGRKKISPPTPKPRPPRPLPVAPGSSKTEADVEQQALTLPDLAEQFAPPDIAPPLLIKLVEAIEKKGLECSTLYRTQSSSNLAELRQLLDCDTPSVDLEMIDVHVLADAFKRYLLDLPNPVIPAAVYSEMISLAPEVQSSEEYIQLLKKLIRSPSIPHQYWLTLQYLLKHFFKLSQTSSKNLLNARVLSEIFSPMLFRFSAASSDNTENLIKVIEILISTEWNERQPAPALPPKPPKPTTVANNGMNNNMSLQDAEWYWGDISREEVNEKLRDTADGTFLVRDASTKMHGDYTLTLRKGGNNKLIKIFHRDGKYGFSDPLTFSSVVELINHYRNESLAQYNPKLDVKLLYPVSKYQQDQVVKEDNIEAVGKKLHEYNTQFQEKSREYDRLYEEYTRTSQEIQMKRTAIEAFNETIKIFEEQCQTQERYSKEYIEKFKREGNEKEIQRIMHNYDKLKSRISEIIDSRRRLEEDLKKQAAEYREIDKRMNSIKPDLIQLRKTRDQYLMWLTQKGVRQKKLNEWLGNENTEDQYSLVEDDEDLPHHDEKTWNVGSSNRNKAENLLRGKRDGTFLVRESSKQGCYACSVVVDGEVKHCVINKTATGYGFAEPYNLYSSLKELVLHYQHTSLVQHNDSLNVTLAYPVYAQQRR
Chain of SPHK2 (Q9NRA0 whole entry, species assumed): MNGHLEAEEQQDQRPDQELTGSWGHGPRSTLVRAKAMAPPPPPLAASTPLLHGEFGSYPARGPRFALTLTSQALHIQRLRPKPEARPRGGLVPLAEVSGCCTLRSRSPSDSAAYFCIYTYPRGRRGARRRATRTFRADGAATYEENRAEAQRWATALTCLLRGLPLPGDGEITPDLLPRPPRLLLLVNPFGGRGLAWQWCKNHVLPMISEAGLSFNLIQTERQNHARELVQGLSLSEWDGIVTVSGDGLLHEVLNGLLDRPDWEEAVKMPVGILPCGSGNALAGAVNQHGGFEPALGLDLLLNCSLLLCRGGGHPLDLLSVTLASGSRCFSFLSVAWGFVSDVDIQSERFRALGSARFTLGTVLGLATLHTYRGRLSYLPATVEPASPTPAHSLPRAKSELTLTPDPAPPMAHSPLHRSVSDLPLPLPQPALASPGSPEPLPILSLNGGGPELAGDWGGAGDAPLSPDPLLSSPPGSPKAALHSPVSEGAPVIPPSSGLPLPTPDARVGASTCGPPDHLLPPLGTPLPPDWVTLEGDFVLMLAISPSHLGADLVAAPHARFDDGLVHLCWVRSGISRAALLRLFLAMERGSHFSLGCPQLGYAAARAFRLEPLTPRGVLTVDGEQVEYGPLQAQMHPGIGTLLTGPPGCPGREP
Chain of CHK beta (Q9Y259 whole entry): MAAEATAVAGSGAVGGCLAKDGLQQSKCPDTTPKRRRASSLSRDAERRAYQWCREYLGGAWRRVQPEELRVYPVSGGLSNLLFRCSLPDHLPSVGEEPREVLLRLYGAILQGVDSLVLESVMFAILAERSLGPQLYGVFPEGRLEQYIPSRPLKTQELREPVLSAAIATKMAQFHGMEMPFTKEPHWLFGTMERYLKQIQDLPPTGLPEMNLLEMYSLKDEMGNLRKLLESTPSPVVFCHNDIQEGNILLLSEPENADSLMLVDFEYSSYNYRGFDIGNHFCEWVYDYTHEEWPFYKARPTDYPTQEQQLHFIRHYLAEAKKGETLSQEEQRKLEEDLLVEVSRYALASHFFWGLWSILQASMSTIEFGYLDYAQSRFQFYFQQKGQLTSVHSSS
Chain of SPHK1 (Q9NYA1 whole entry, species assumed): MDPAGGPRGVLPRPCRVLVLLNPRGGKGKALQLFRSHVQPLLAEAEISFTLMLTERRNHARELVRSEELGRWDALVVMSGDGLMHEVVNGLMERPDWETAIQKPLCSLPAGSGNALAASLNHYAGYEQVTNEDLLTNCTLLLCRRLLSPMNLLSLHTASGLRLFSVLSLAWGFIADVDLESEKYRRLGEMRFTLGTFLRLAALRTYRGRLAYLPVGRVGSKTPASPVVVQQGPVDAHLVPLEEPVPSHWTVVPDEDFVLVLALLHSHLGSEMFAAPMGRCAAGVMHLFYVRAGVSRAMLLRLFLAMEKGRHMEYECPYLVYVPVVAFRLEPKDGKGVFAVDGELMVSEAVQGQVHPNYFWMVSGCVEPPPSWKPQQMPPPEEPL
Chain of PI3Ka E545K + p85 (P42336 whole entry E545K): as the sequence (P42336 whole entry, species assumed) above, with E545K counted along it
Chain of PI3Ka E545K + p85 (P27986 whole entry partner): as the sequence (P27986 whole entry partner, species assumed) above
Chain of CHK alpha (P35790 whole entry): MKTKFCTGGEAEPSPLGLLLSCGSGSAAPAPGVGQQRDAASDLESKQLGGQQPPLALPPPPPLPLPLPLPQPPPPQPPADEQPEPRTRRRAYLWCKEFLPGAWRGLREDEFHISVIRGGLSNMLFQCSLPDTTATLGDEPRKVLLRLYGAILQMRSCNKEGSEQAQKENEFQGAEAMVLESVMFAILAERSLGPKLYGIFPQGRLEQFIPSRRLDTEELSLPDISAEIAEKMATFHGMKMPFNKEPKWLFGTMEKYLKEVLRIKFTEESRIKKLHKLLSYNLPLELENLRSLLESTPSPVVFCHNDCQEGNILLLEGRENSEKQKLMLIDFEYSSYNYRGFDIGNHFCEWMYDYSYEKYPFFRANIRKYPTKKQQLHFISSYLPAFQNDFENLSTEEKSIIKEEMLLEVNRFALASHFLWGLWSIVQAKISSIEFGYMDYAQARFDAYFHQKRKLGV

COc1ccc(Nc2ncnc3c2ccn3-c2ccc(C)c(C)c2)cc1Cl [compound 36]
remaining activity at 1 µM (PI3K gamma; read-out: residual activity (%)): 100% | remaining activity at 1 µM (PI4K2a; [2]): 95.7% | remaining activity at 1 µM (CHK beta; CHK beta, 1 μM, read-out: residual activity (%)): 93.4% | remaining activity at 1 µM (DGK gamma; DGK gamma, 1 μM, read-out: residual activity (%)): 106% | remaining activity at 1 µM (PI3K beta; PI3K beta, 1 μM, read-out: residual activity (%)): 83.1% | remaining activity at 1 µM (PI3K alpha; PI3K alpha, 1 μM, read-out: residual activity (%)): 83.8% | remaining activity at 1 µM (CHK alpha; CHK alpha, 1 μM, read-out: residual activity (%)): 87.8% | remaining activity at 1 µM (DGK beta; DGK beta, 1 μM, read-out: residual activity (%)): 100% | remaining activity at 1 µM (PI3Ka E545K + p85; [2]): 97.6% | remaining activity at 1 µM (SPHK2; [2]): 81.7% | remaining activity at 1 µM (DGK zeta; DGK zeta, 1 μM, read-out: residual activity (%)): 100% | remaining activity at 1 µM (PIK4CB; PIK4Cb, 1 μM, read-out: residual activity (%)): 101% | remaining activity at 1 µM (SPHK1; [2]): 92.9% | solubility at 2 h [1]: 3 µM (≈ 1.14 µg/mL) | remaining activity at 1 µM (ULK2): 92% | remaining activity at 1 µM (PLK1): 90% | remaining activity at 1 µM (ZAP70): 99% | remaining activity at 1 µM (PKA): 80% | remaining activity at 1 µM (BRK): 126% | remaining activity at 1 µM (MAPKAP-K2): 109% | remaining activity at 1 µM (PKBb): 103% | remaining activity at 1 µM (PAK5): 94% | remaining activity at 1 µM (DAPK1): 118% | remaining activity at 1 µM (TrkA): 85% | remaining activity at 1 µM (S6K1): 89% | remaining activity at 1 µM (Lck): 95% | inhibition of targets in the protein kinase screen (140 protein kinases): ≤ 50%

CC1(C)CN(c2ncc(C(=O)Nc3cccc(C(F)(F)F)c3)c(N)n2)C(=O)N1 [compound 7, Imanixil]
% activity remaining (PI3K gamma; PI3K g, ADP-Glo): 79% | % activity remaining (PI4K2a; ADP-Glo): 100% | % activity remaining (CHK beta; CHK b, ADP-Glo): 99% | % activity remaining (DGK gamma; DGK g, ADP-Glo): 100% | % activity remaining (PI3K beta; PI3K b, ADP-Glo): 109% | % activity remaining (PI3K alpha; PI3K a, ADP-Glo): 106% | % activity remaining (CHK alpha; CHK a, ADP-Glo): 101% | % activity remaining (DGK beta; DGK b, ADP-Glo): 97% | % activity remaining (PI3Ka E545K + p85; ADP-Glo): 107% | % activity remaining (SPHK2; ADP-Glo): 99% | % activity remaining (DGK zeta; DGK z, ADP-Glo): 101% | % activity remaining (PIK4CB; PIK4CB, ADP-Glo): 94% | % activity remaining (SPHK1; ADP-Glo): 98%
